Laboratory results as given in US20240376607A1, “METHOD AND COMPOSITION FOR TREATING DILUTION STEAM GENERATOR SYSTEMS” (BL Technologies, Inc., priority 2021, published 2024).
“Also recorded” adds a separate entry of the source.

Test: Electrochemical corrosion rate measurement (Rp/Ec trend) in DSG water
Conditions: DSG Water B, 100 ppm active
Procedure: Electrochemical measurements were carried out using Gamry 600+ Potentiostat coupled with DC105™ Corrosion Techniques Software. Experiments were performed with a conventional three-electrode electrochemical cell and by employing the Rp/Ec trend technique. All tests were carried out for 24 hours at pH=8.2 to 8.8 and at T=22±0.2° C. (maintained with a recirculating water bath). A Teflon® liner was used to avoid filmer loss to the corrosion cell. The corrosion rates are measured in milli-inch per year (mpy). Pre-cleaned low carbon steel (LCS) coupons having a total surface area of 2.95 in^2 and a density of 7.87 g/cm^3 were used for testing the corrosion inhibitor treatments.

octenyl succinic acid [OSA]
corrosion inhibition (FIG. 1) (LCS coupons): inhibit corrosion; also recorded: not as robust as the Polyamine sample
corrosion rate (FIG. 2) (rate it increases to, 20 hours): 8 mpy
